Results taken from patent US20180085374A1, “Use of Morpholino Compounds for the Treatment of Halitosis” (MERIAL INC., priority 2007, published 2018).

How the values were obtained:
oral bacteria = conditions: delmopinol mouthwash; cited from earlier work
[1] = system: Volatile Sulphur Compounds (VSCs); experiment: Levels of VSCs following treatment with delmopinol; type: in vivo

CCCC(CCC)CCCC1COCCN1CCO (centres unmarked) [delmopinol, 3-(4-propyl-heptyl)-4-(2-hydroxyethyl)morpholine]
numbers or proportions of oral bacteria (oral bacteria): does not significantly affect
levels of VSCs [1]: decrease
